Data: article PMC4762374 (MedChemComm, 2015)

Key:
NDM-1 (Purified) = NDM-1 (Purified) (Klebsiella pneumoniae, UniProt C7C422); assay: In vitro β-lactamase inhibition screening, NDM-1; assay type: biochemical; conditions: for inhibition of NDM-1 (in words): class B enzymes, effect of N-thiolation
M. vaccae = assay: Kirby-Bauer antibacterial agar diffusion assay; assay type: cell-based
CTX-M-14 (Purified) = CTX-M-14 (Purified) (Escherichia coli, UniProt Q9L5C7); assay: In vitro β-lactamase inhibition screening, CTX-M-14; assay type: biochemical
M.tb (H37Rv) = assay: Microplate alamar blue assay; assay type: cell-based, Mycobacterium tuberculosis; conditions: against M.tb

Chain of NDM-1 (Purified) (C7C422 29-270 limits assumed): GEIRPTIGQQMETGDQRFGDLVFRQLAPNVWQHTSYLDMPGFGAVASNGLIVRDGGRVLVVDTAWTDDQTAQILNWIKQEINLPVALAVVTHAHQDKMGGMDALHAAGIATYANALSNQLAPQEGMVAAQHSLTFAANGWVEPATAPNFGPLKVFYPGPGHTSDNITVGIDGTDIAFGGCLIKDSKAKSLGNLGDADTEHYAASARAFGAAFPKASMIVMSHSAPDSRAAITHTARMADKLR

## CSN1C(=O)[C@@H](NC(=O)COc2ccccc2)[C@@H]1N(OCc1ccccc1)C(=O)c1cc([N+](=O)[O-])cc(C(F)(F)F)c1 (racemic) [Compound 24b]
NDM-1 (Purified)
  inhibition of NDM-1 (in words): potent inhibitor

## CSN1C(=O)[C@@H](NC(=O)COc2ccccc2)[C@@H]1N(OCc1ccccc1)C(=O)c1ccccc1 (racemic) [Compound 24a]
M. vaccae
  activity in the agar studies (in words): not very active

## C[C@@H](O)[C@H]1C(=O)N[C@@H]1N(OCc1ccccc1)C(=O)c1ccccc1 [Compound 12]
CTX-M-14 (Purified); after silyl removal, compared with CTX-M-14-directed compound 13
  β-lactamase inhibitory activity (in words): inactive
M.tb (H37Rv)
  anti-TB activity (in words): inactive

## C[C@@H](O[Si](C)(C)C(C)(C)C)[C@H]1C(=O)N[C@@H]1N(OCc1ccccc1)C(=O)c1ccccc1 [Compound 11]
M.tb (H37Rv)
  anti-TB activity (in words): did not exhibit noticeable anti-TB activity

## C=CCON(C(=O)c1ccc([N+](=O)[O-])cc1)C1CC(=O)N1SC (centres unmarked) [Compound 8c]
NDM-1 (Purified)
  inhibition of NDM-1 (in words): potent inhibitor

## CCOc1ccc(C(=O)N(OCc2ccccc2)C2CC(=O)N2)cc1 (centres unmarked) [Compound 7b]
NDM-1 (Purified)
  inhibition of NDM-1 (in words): inactive

## CSN1C(=O)[C@H]([C@@H](C)O[Si](C)(C)C(C)(C)C)[C@H]1N(OCc1ccccc1)C(=O)c1ccccc1 [Compound 13]
M. vaccae
  activity in the agar studies (in words): not very active
M.tb (H37Rv)
  anti-TB activity (in words): good activity

## C=CCON(C(=O)c1ccc([N+](=O)[O-])cc1)C1CC(=O)N1 (centres unmarked) [Compound 7c]
NDM-1 (Purified)
  inhibition of NDM-1 (in words): inactive

## CCOc1ccc(C(=O)N(OCc2ccccc2)C2CC(=O)N2SC)cc1 (centres unmarked) [Compound 8b]
NDM-1 (Purified)
  inhibition of NDM-1 (in words): potent inhibitor

## CC(C)(C)[Si](C)(C)N1C(=O)CC1N(OCc1ccccc1)C(=O)c1ccccc1 (centres unmarked) [Compound 6]
M. vaccae
  activity in the agar studies (in words): not very active

## O=C(Cc1ccccc1)N[C@@H]1C(=O)N[C@H]1N(OCc1ccccc1)C(=O)c1ccccc1 [Compound 18]
NDM-1 (Purified)
  Ki: > 160000 nM
CTX-M-14 (Purified)
  Ki: 50 nM
